The values that follow come from publication PMC10539361, “Allosteric modulation of the fish taste receptor type 1 (T1R) family by the extracellular chloride ion” (Scientific Reports, 2023).

In the assay the target is T1, mfT1R2a/mfT1R3 (Oryzias latipes, UniProt Q2MHK2+Q2MHK5).
T1 sequence (Q2MHK5 20-819): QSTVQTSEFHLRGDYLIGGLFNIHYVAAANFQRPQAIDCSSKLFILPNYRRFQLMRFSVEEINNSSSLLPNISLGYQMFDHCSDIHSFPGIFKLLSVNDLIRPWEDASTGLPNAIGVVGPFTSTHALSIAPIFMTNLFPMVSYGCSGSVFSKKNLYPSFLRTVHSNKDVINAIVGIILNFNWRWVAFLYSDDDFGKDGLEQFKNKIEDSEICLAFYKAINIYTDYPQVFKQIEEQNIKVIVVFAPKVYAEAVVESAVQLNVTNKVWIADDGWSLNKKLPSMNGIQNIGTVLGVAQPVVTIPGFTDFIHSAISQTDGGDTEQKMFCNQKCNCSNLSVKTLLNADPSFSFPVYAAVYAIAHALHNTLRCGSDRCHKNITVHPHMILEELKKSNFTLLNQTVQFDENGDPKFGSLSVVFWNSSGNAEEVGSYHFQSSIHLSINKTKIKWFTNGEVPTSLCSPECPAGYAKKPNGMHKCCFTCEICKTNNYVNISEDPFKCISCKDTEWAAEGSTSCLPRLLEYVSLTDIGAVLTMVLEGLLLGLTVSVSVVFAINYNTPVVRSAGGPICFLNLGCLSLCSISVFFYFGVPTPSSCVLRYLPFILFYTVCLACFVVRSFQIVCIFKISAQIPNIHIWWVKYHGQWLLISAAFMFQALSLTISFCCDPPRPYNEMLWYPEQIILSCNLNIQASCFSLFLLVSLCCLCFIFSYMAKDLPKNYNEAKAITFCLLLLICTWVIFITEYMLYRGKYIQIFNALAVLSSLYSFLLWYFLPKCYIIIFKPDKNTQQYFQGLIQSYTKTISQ
T1 sequence (Q2MHK2 20-853): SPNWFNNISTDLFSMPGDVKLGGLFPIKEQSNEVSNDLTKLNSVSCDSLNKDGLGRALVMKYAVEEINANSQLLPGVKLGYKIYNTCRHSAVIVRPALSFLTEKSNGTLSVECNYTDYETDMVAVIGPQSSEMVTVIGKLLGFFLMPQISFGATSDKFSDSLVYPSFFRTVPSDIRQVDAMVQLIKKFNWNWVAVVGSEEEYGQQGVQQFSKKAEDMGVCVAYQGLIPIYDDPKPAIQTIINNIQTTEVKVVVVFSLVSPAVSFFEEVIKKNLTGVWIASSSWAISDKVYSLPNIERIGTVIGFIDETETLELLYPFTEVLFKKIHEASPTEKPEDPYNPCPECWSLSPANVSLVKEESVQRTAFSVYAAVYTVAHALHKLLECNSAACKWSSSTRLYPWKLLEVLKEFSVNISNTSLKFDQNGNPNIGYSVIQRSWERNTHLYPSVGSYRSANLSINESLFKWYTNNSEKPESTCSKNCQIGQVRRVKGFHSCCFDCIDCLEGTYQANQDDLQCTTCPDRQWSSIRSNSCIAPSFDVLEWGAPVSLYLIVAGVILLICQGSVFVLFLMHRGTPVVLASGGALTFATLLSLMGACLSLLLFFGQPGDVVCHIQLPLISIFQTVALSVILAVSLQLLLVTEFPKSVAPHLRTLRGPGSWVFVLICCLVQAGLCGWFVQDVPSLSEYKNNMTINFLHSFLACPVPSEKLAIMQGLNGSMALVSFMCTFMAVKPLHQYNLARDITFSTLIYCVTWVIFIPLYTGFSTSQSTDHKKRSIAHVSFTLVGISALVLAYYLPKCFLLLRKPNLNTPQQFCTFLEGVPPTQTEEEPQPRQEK
Nature of the assay: Effect of anions, cations and osmotic pressure on cellular responses, cells in 10 mM Cl- buffer, mfT1R2a/mfT1R3. Type of assay: cell-based, medaka fish. To be noted: for response to fixed concentration of L-Gln on coapplication: coapplied with 200 µM L-Gln, final [Cl-]o up to 60 mM. How it is done:
Cells were seeded in 96-well plates coated with ε-poly-L-lysine at approximately 70,000 cells per well. […] Fluorescence changes were monitored at 2 s intervals, as described above. […] Three independent experiments were conducted for each receptor, and representative results are shown as the mean ± SEM (n = 3 replicates). Statistical tests were conducted using KyPlot version 6.0 (KyensLab Inc., Tokyo, Japan). Statistical significance was set at p < 0.05.

As for `O=C([O-])[C@H](O)[C@@H](O)[C@H](O)[C@H](O)CO.[Na+]` [Na-gluconate, sodium gluconate], the “response to fixed concentration of L-Gln on coapplication” value (cells in 10 mM Cl- buffer) was “did not enhance”.

Regarding `[Cl-].[Na+]` [NaCl], the “additional anion concentration needed to significantly increase the response intensity to L-Gln” value (added to 10 mM Cl- buffer with 200 µM L-Gln) amounted to 30 mM. The “response to fixed concentration of L-Gln on coapplication” value (cells in 10 mM Cl- buffer) is recorded as “enhanced”. In addition, where the note is “without agonist, cells in 10 mM Cl- buffer”, the “cellular response to the salt alone” value was “did not elicit”.
